Measurements as given in patent US4902505A, “Chimeric peptides for neuropeptide delivery through the blood-brain barrier” (Alkermes, priority 1988, dated 1990).

Key:
blood-brain barrier = details: general statement, no test described; cited from earlier work
[1] = tested on: isolated bovine brain microvessels; experiment: Radioreceptor assay (uptake) using isolated bovine brain microvessels; assay type: cell-based; details: up to 60 minutes incubation at room temperature; FIG. 1
Protocol: Somatostatin was obtained from Peninsula Laboratories and tritiated by reductive methylation using ^3 H-sodium borohydride. […] The two compounds were coupled together using SPDP as described in Example 1. Bovine brain microvessels were isolated as described in Pardridge, et al., "Rapid Sequestration And Degradation Of Somatostatin Analogues By Isolated Brain Microvessels", (Journal of Neurochemistry, Vol. 44, No. 4, 1985, pp. 1178-1184).
^3 H-somatostatin was added to one set of microvessels for up to 60 minutes incubation at room temperature. In another set of incubations, the ^3 H-somatostatin-^125 I-insulin chimera was also added. […] The uptake of the free somatostatin likely represents nonspecific binding as described in the article mentioned above (Journal of Neurochemistry, Vol. 44, No. 4, 1985).
Previous studies have shown that the receptor-mediated endocytosis of peptides in the isolated brain microvessels is a reliable index of the in vivo blood-brain barrier receptor transport activity of peptides in vivo (see my previously-mentioned article in Endocrine Reviews, Vol. 7, No. 3, Aug. 1986).

Row | Compound | transport through the blood-brain barrier (blood-brain barrier) | change of uptake with time [1]
1 | C[C@H](N)C(=O)NCC(=O)N[C@H]1CSSC[C@@H](C(=O)O)NC(=O)[C@H](CO)NC(=O)[C@H]([C@@H](C)O)NC(=O)[C@H](Cc2ccccc2)NC(=O)[C@H]([C@@H](C)O)NC(=O)[C@H](CCCCN)NC(=O)[C@H](Cc2c[nH]c3ccccc23)NC(=O)[C@H](Cc2ccccc2)NC(=O)[C@H](Cc2ccccc2)NC(=O)[C@H](CC(N)=O)NC(=O)[C@H](CCCCN)NC1=O [somatostatin] | not transported | no increase in time
2 | cationized albumin: bovine serum albumin covalently coupled with hexamethylene-diamine | enters the brain rapidly | –
